# US20230265065A1 (WEST VIRGINIA UNIVERSITY BOARD OF GOVERNORS ON BEHALF OF …, priority 2020, published 2023)
# Entries after “also recorded” stand apart in the source; their conditions may differ.
# Legend:
# PTPRD [1] = target: T1, PTPRD (Homo sapiens, UniProt P23468); assay: PTPRD inhibitor screen and IC50 at pH 7.5 and 37° C.; assay type: biochemical; settings: 1 μM
# T1 construct: We maintain a library of PTP catalytic domains
# T1 sequence (P23468 1357-1612): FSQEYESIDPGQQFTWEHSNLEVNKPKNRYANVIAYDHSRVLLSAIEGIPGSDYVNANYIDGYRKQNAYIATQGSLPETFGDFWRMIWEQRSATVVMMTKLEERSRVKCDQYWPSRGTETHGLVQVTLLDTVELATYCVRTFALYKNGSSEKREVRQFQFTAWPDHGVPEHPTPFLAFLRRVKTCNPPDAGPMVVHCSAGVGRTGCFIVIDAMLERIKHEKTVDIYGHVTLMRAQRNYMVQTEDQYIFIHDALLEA
# PTPRD [2] = target: T1, PTPRD; assay: as above; assay type: biochemical; settings: for PTPRD inhibition in preliminary screening assays: 1 μM and 250 nM; for IC50: pH 7.5 and 37° C.
# [3] = test system: LAR-PTP subfamily (LAR, PTPRσ, and PTPR^δ); assay: PTP panel screen, LAR-PTP subfamily; assay type: biochemical, human; settings: panel also with PTP1B, SHP2, and CD45
# Protocol: (§1) We screen illudalogs against a panel of PTPs including PTPRD, as illustrated in FIG. 16. […] Typical experimental conditions are 5-10 nM enzyme, 1-10 μM DiFMUP, and 250 nM inhibitor at 37° C.
# CD45 = target: T2, CD45 (Homo sapiens, UniProt P08575); assay: PTP panel inhibition, CD45; assay type: biochemical
# T2 construct: We maintain a library of PTP catalytic domains
# T2 sequence (P08575 653-912): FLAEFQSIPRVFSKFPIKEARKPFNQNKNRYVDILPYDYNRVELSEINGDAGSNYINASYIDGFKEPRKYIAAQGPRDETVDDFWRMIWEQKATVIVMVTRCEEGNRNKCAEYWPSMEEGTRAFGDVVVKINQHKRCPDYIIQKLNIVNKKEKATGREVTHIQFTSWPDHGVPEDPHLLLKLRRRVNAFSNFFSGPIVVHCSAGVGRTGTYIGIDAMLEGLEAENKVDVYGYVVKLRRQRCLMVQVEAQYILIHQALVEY
# [4] = Storage stability as pure substance or in DMSO; assay type: physicochemical; settings: room temperature for six months
# Description: As discussed above, our new synthetic approach focuses on convergent benzannulation, followed by conversion to the ortho-formyl hydroxy-lactone pharmacophore (FIG. 1). […] LiAlH4, then 6M HCl, ca. 40-70% yields of IAn compounds, which generally precipitate from aqueous acid as white crystalline solids. Intermediates 5 can be isolated for derivatization prior to acidic hydrolysis or advanced directly to the IAn compounds. Optimization is proposed and in progress. Currently, IA1 is produced in ca. 27% yield over 4 steps from 3. We have prepared >35 g of ester 2; ≥100 mg of IA1 and IA3; and ≥10 mg each of the other illudalog compounds of this invention. […] For IA1, we access β-keto amide 1a in two steps from known enal 3.^61 Other β-keto amides 1 provide parallel access to diverse illudalog cores (e.g., 1b→IA3, FIG. 1, bottom). We prepare β-keto ester 2^62 on multigram-scale using CDI-mediated decarboxylative coupling;^63 we have >35 g of 2 in stock. β-Keto ester 2 is the common building block for illudalogs prepared thus far; it comprises functional precursors to the hydroxy-lactone. The benzannulation is adapted from a known naphthol annulation.^64 The final reduction and hydrolysis sequence can be executed as a one-pot operation or with isolation of intermediate 5. Presumably, the deprotonated phenol directs reduction of the ortho-amide over the para-ester. […]
# LAR [5] = target: T3, LAR (Homo sapiens, UniProt P10586); assay: Reversibility of LAR inhibition by dialysis; assay type: biochemical; parameters: We maintain a library of PTP catalytic domains; settings: preliminary experiments
# T3 sequence (P10586 1352-1607): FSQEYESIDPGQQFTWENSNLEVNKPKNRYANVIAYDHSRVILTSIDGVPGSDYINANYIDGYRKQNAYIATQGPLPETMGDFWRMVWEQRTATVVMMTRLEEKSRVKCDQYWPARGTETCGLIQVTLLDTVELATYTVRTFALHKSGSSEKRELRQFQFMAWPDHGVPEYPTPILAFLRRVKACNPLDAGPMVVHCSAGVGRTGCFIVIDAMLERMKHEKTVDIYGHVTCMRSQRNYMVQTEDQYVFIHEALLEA
# PTPRδ [6] = target: T4, PTPRδ (Homo sapiens, UniProt P23468); assay: PTP panel inhibition, PTPRδ; assay type: biochemical; parameters: We maintain a library of PTP catalytic domains
# T4 sequence (P23468 1357-1612): T1 sequence (P23468 1357-1612)
# LAR [7] = target: T3, LAR; assay: Standard phosphatase assay (DiFMUP) with LAR, pH 6.5, 22° C.
# Protocol: Enzyme activity assays are performed in black 96-well plates containing a total volume of 100 μL in each well. […] Prior to each assay, the enzyme is activated by incubating in Bis-Tris buffer (50 mM Bis-Tris pH 6.5, 100 mM NaCl, 0.01% Brij 35, 1 mM EDTA) with 5 μL of 100 mM TCEP on ice for 30 min. Buffer, enzyme, and either a DMSO control or the compound of interest are added to each well of the 96-well plate and incubated for 30 min at room temperature. After this 30-min preincubation period, the substrate DiFMUP is added to initiate the reaction. The observed fluorescence resulting from the hydrolysis of DiFMUP is measured every 60 s for 30 min in a SpectraMax M5 plate reader with excitation and emission wavelengths of 350 and 455 nm, respectively.
# Assays to investigate time-dependent inhibition are performed as described in the initial inhibitory screen assays section with slight modifications. Buffer and enzyme are initially added to each well, followed by sequential addition of inhibitor starting from the longest incubation time to the shortest.
# Assays to determine kobs values were performed as described in the Initial inhibitory screen assays section above with slight modification. Buffer, inhibitor and DMSO were added to each well as appropriate. Enzyme was then added to each well and allowed to incubate for the desired time, followed by addition of DiFMUP to initiate the assay.
# SHP2 = target: T5, SHP2 (Homo sapiens, UniProt Q06124); assay: PTP panel screen, SHP2; assay type: biochemical; settings: 250 nM
# T5 construct: We maintain a library of PTP catalytic domains
# T5 sequence (Q06124 247-517): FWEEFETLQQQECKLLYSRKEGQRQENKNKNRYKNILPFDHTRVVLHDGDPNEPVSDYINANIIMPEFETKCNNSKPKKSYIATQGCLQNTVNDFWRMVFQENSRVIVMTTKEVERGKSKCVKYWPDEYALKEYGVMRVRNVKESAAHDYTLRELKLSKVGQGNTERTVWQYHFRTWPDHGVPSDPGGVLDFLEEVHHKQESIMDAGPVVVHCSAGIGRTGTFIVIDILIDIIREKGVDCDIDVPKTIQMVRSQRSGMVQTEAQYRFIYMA
# Protocol: as §1
# PTPRδ [8] = target: T4, PTPRδ; assay: Preliminary LAR-PTP inhibition assay at pH 8; assay type: biochemical; settings: pH 8, 100 μM compound, 30 min preincubation
# Protocol: The illudalogs of this invention show inhibitory activity against LAR-PTPs in preliminary assays at pH 6.5 and pH 8 (FIG. 9). In all assays, 100 μM of compound was incubated with enzyme for 30 min prior to the assay. […] This apparent pH-dependence is consistent with the postulated two-stage binding mechanism and will be investigated further. There is some variation in potency and selectivity across the analogues, although these preliminary assays are not precise enough to support quantitative conclusions.
smiles,measurement,setting,value
CCOc1c(C=O)c2c(c3ccccc13)C(=O)OC(O)C2 (stereo not drawn) [IA3-6OEt],PTPRD inhibitory activity on rescreening,PTPRD [1],lower inhibitory activity
O=Cc1c2c(c3ccc(Br)cc3c1O)C(=O)OC(O)C2 (stereo not drawn) [IA3-8Br],PTPRD inhibition in preliminary screening assays,PTPRD [2],potent PTPRD inhibitors
CC1(C)CCc2c(O)c(C=O)c3c(c2C1)C(=O)OC(O)C3 (stereo not drawn) [IA2-9Me2],potency and selectivity for the LAR subfamily,[3]; listed as 16,different selectivity profile within the LAR subfamily
C#Cc1ccc2c3c(c(C=O)c(O)c2c1)CC(O)OC3=O (stereo not drawn) [IA3-8C2H],PTPRD inhibition in preliminary screening assays,PTPRD [2],potent PTPRD inhibitors
"CC1(C)Cc2c(O)c(C=O)c3c(c2C1)C(=O)OC(O)C3 (stereo not drawn) [illudalic acid, reference compound]",IC50,PTPRD [2],0.09 ± 0.014 µM
same,inhibition of CD45 activity,CD45,inhibited
same,stability of NMR sample in DMSO,[4],unchanged
same,recovery of enzyme activity by dialysis,LAR [5],enzyme activity cannot be recovered by dialysis
same,inhibition of PTPRδ activity,PTPRδ [6],inhibit
same,inhibitory activity in standard phosphatase assays,"LAR [7]; LAR, standard assays",active; also recorded: inhibit
O=Cc1c2c(c3cc(F)c(F)cc3c1O)C(=O)OC(O)C2 (stereo not drawn) [IA3-89F],IC50,PTPRD [2],0.051 ± 0.005 µM
COc1c(C=O)c2c(c3ccccc13)C(=O)OC(O)C2 (stereo not drawn) [IA3-6OMe],PTPRD inhibitory activity on rescreening,PTPRD [1],lower inhibitory activity
CC1(C)CCc2c(c(O)c(C=O)c3c2C(=O)OC(O)C3)C1 (stereo not drawn) [IA2-8Me2],inhibition at 0.25 µM,SHP2,> 50%
same,potency and selectivity for the LAR subfamily,[3]; listed as 15,most potent and is selective for the LAR subfamily
COc1c(C=O)c2c(c3c1CC(C)(C)C3)C(=O)OC(O)C2 (stereo not drawn) [IA1-6OMe],potency and selectivity for PTPR^δ over other LAR-PTPs,PTPRδ [8],potent and selective for PTPR^δ over LAR and PTPR^δ
same,inhibition of PTPRδ activity,PTPRδ [6],inhibit
same,selectivity for LAR compared to other PTPs,"LAR [7]; 100 μM inhibitor, pH 6.5, 22 degrees Centigrade",more selective for LAR
same,inhibitory activity in standard phosphatase assays,"LAR [7]; LAR, standard assays",inhibit
same,initial thermodynamic binding affinity K1,"LAR [7]; LAR, standard assays",too weak
same,kinetic covalent ligation rate kinact,"LAR [7]; LAR, standard assays",too fast
same,IC50,"LAR [7]; read-out: IC50 (LAR), standard assays, pH 6.5 and 22° C.",55 ± 6 µM
